These results are taken from patent publication US10227296B2, “Bis(sulfonamide) derivatives and their use as mPGES inhibitors” (Acturum Real Estate AB, priority 2014, dated 2019).

One test concerns the target T1, human mPGES-1 (Homo sapiens, UniProt O14684).
T1 construct: host or cells: microsomes
T1 sequence (O14684 1-152): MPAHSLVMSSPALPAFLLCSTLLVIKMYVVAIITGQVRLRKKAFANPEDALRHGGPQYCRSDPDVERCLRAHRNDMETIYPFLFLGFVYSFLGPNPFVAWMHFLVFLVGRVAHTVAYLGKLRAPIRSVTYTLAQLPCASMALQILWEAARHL
Description: Microsomal prostaglandin E synthase biochemical assay. Conditions: microsomes containing human mPGES-1, PGH2 10.8 μM, GSH 2.5 mM, pH 6.8; average of at least n=2. How it is done: Compounds were tested as inhibitors of microsomal prostaglandin E synthase activity in microsomal prostaglandin E synthase assays and whole cell assays. These assays measure prostaglandin E2 (PGE2) synthesis, which is taken as a measure of prostaglandin E synthase activity. Microsomal prostaglandin E synthase biochemical assays used microsomal prostaglandin E synthase-1 in microsomal preparations. The source of the microsomes can be for example interleukin-1β-stimulated human A549 cells (which express human mPGES-1) or Sf9 cells transfected with plasmids encoding human mPGES-1 cDNA.
A solution of test compound was added to a diluted microsome preparation containing human mPGES-1 and pre-incubated for 15 minutes in potassium phosphate buffer pH 6.8 with cofactor glutathione (GSH). Corresponding solutions without test compound were used as positive controls, and corresponding solutions without test compound and without microsomes were used as negative controls. The enzymatic reaction was then started by addition of the substrate PGH2 in an organic solution (dry acetonitrile).
The typical reaction conditions of the enzymatic reaction were thus: Test compound: ranging from 60 μM to 0.002 μM, or zero in positive and negative controls; potassium phosphate buffer pH 6.8: 50 mM; GSH: 2.5 mM; mPGES-1-containing microsomes: 2 μg/mL (sample and positive controls) or 0 μg/mL (negative control); PGH2: 10.8 μM; Acetonitrile: 7.7% (v/v); DMSO: 0.6% (v/v). The reaction was stopped after one minute by adding an acidic solution (pH 1.9) of ferric chloride and citrate (final concentrations 7 mM and 47 mM respectively), by which the PGH2 was sequestered (the PGH2 is reduced to mainly 12-hydroxy heptadecatrineoic acid (12-HHT) which is not detected by the subsequent PGE2 detection step). The resulting solution was then pH neutralized by addition of potassium phosphate buffer, prior to diluting an aliquot of the resulting solution in a weak potassium phosphate buffer (50 mM, pH 6.8) containing 0.2% BSA (w/v). [Adapted from Jacobsson et al., Proc. Natl. Acad. Sci. USA, 1999, vol. 96, pp. 7220-7225] The PGE2 formed was quantified by use of a commercial HTRF based kit (catalogue #62PG2PEC or #62P2APEC from Cisbio International). 100% activity was defined as the PGE2 production in positive controls subtracted by the PGE2 production in the negative controls. IC50 values were then determined using standard procedures.
The potency is expressed as IC50 and the value indicated is an average of at least n=2.

Test [1] concerns mPGES-1-dependent PGE2 production in human blood. The test is described as follows: Whole blood assay (LPS-stimulated human blood, PGE2 production). Format: cell-based. To be noted: 0.1 μg/ml LPS, 16 hours, 37° C., PGE2 by HTRF, read-out: hWBA. The text has this:
The whole blood assay [described by Patrignani, P. et al, Journal of Pharmacology and Experimental Therapeutics, 1994, vol. 271, pp 1705-1712] was used as the whole cell assay for testing the compounds. Whole blood provides a protein and cell rich environment for the study of biochemical efficacy of anti-inflammatory compounds, such as prostaglandin synthase inhibitors. To study the inhibitory activities of these compounds, human blood was stimulated with lipopolysaccharide (LPS) for typically 16 hours to induce mPGES-1 expression, after which the concentration of produced PGE2 was measured by competitive-immuno assay (homogeneous time-resolved fluorescence, HTRF) as read out for effectiveness against mPGES-1-dependent PGE2 production.
Human blood collected from human volunteers in heparinized tubes was incubated with 100 μM acetyl salicylic acid, in order to inhibit the constitutively expressed cyclooxygenase (COX)-1/COX-2 enzymes, and then stimulated with 0.1 μg/ml LPS to induce the expression of enzymes along the COX-2 pathway, e.g. COX-2 and mPGES-1. 100 μL of this blood was added to the wells of a 384-well plate containing 1 μL DMSO solutions of compounds typically in the final concentration range 316 μM to 0.01 μM. Naproxen was used as reference compound. The mix was incubated at 37° C. for 16 hours. Plasma was harvested by centrifugation and stored at −70° C. until further analysis of PGE2 levels. For the calculations, the 0%-activity value was represented by blood treated with acetyl salicylic acid, LPS and the reference compound (1 mM Naproxen). The 100%-activity value was represented by blood treated with aspirin, LPS and DMSO. [Reference: Patrignani, P. et al, Journal of Pharmacology and Experimental Therapeutics, 1994, vol. 271, pp 1705-1712]. The PGE2 formed was quantified, after dilution in a weak potassium phosphate buffer (50 mM, pH 6.8) containing 0.2% BSA (w/v), by use of a commercial HTRF based kit (catalogue #62PG2PEC or #62P2APEC from Cisbio International). IC50 values were then determined using standard procedures.
In general terms: TR-FRET usually uses a lanthanide donor and a delayed reading to cut background.

In the case of `NS(=O)(=O)c1ccccc1NS(=O)(=O)CCc1ccc(Cl)cc1OCCc1ccccc1` [Example 1, 2-(2-(4-chloro-2-phenethoxyphenyl)ethylsulfonamido)benzenesulfonamide], the IC50 was found to be 6.96 nM at human mPGES-1 and 50.8 nM in test [1].
As for `COc1ccccc1CCOc1cc(Cl)ccc1CCS(=O)(=O)Nc1ccccc1S(N)(=O)=O` [Example 2, 2-(2-(4-chloro-2-(2-methoxyphenethoxy)phenyl)ethylsulfonamido)benzenesulfonamide], the values for the IC50 (against human mPGES-1; in test [1]) were 3.7 nM and 3.4 nM, respectively.
`COc1cccc(CCOc2cc(Cl)ccc2CCS(=O)(=O)Nc2ccccc2S(N)(=O)=O)c1` [Example 3, 2-(2-(4-chloro-2-(3-methoxyphenethoxy)phenyl)ethylsulfonamido)benzenesulfonamide]: the IC50 against human mPGES-1 amounted to 6.4 nM; in test [1], 90 nM.
For `COc1ccc(CCOc2cc(Cl)ccc2CCS(=O)(=O)Nc2ccccc2S(N)(=O)=O)cc1` [Example 4, 2-(2-(4-chloro-2-(4-methoxyphenethoxy)phenyl)ethylsulfonamido)benzenesulfonamide], the IC50 was determined as 26.4 nM at human mPGES-1 and 70.3 nM in test [1].
As for `N#Cc1ccccc1CCOc1cc(Cl)ccc1CCS(=O)(=O)Nc1ccccc1S(N)(=O)=O` [Example 5, 2-(2-(4-chloro-2-(2-cyanophenethoxy)phenyl)ethylsulfonamido)benzenesulfonamide], the IC50 stood at 4.1 nM at human mPGES-1 and 10.4 nM in test [1].
With `N#Cc1cccc(CCOc2cc(Cl)ccc2CCS(=O)(=O)Nc2ccccc2S(N)(=O)=O)c1` [Example 6, 2-(2-(4-chloro-2-(3-cyanophenethoxy)phenyl)ethylsulfonamido)benzenesulfonamide], the results for the IC50 (against human mPGES-1; in test [1]) were 13.6 nM and 77.4 nM, respectively.
For `N#Cc1ccc(CCOc2cc(Cl)ccc2CCS(=O)(=O)Nc2ccccc2S(N)(=O)=O)cc1` [Example 7, 2-(2-(4-chloro-2-(4-cyanophenethoxy)phenyl)ethylsulfonamido)benzenesulfonamide], in that order: 19.9 nM and 76.5 nM.
For `Cn1ccc2c(CCOc3cc(Cl)ccc3CCS(=O)(=O)Nc3ccccc3S(N)(=O)=O)cccc21` [Example 8, 2-(2-(4-chloro-2-(2-(1-methyl-1H-indol-4-yl)ethoxy)phenyl)ethylsulfonamido)benzenesulfonamide], the IC50 against human mPGES-1 was found to be 7.3 nM; in test [1], 33.6 nM.
For the molecule `NS(=O)(=O)c1ccccc1NS(=O)(=O)CCc1ccc(Cl)cc1OCCc1cccc2c1CC(=O)N2` [Example 9, 2-(2-(4-chloro-2-(2-(2-oxoindolin-4-yl)ethoxy)phenyl)ethylsulfonamido)benzenesulfonamide], the IC50 against human mPGES-1 turned out to be 11.9 nM; in test [1], 84.3 nM.
Consider `NS(=O)(=O)c1cc(CO)ccc1NS(=O)(=O)CCc1ccc(Cl)cc1OCCc1ccccc1` [Example 10, 2-(2-(4-chloro-2-phenethoxyphenyl)ethylsulfonamido)-5-(hydroxymethyl)-benzenesulfonamide], for which the IC50 was found to be 7.97 nM against human mPGES-1 and 10.6 nM in test [1].
